Experimental data as given in PubChem BioAssay AID248 (DTP/NCI, 2004).
Where “and” joins values, the source holds several entries; their conditions need not be identical. Equal values may be shown once. Toxic doses and inconclusive results are not listed. Rule as the data show it: active = T/C of 150% or more; inactive = T/C below 125%.

System: L1210 leukemia ip in BDF1 mice, survival T/C
Assay: NCI In Vivo Anticancer Drug Screen. Data for tumor model L1210 Leukemia (intraperitoneal) in B6D2F1 (BDF1) mice
Conditions: endpoint: mean survival time, higher = longer survival
Method in brief: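 Tumor was transplanted into mice, which were then dosed with test compound or vehicle alone. Survival was recorded for each group, and the treated figure was expressed relative to the control figure.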

[1] = dose: 100.0 mg/kg/injection, schedule: Q01DX009 (ip), vehicle: Klucel (hydroxypropylcellulose) (HPC)
[2] = dose: 200.0 mg/kg/injection, schedule: Q01DX009 (ip), vehicle: Klucel (hydroxypropylcellulose) (HPC)
[3] = dose: 100.0 mg/kg/injection, schedule: Q01DX009 (ip), vehicle: saline with Tween-80
[4] = dose: 200.0 mg/kg/injection, schedule: Q01DX009 (ip), vehicle: saline with Tween-80
[5] = dose: 100.0 mg/kg/injection, schedule: Q01DX009 (ip), vehicle: saline
[6] = dose: 200.0 mg/kg/injection, schedule: Q01DX009 (ip), vehicle: saline
[7] = dose: 50.0 mg/kg/injection, schedule: Q01DX009 (ip), vehicle: Klucel (hydroxypropylcellulose) (HPC)
[8] = dose: 100.0 mg/kg/injection, schedule: Q04DX003 (ip), vehicle: Klucel (hydroxypropylcellulose) (HPC)
[9] = dose: 100.0 mg/kg/injection, schedule: Q04DX003 (ip), vehicle: saline with Tween-80
[10] = dose: 200.0 mg/kg/injection, schedule: Q04DX003 (ip), vehicle: saline with Tween-80
[11] = dose: 400.0 mg/kg/injection, schedule: Q04DX003 (ip), vehicle: saline with Tween-80
[12] = dose: 100.0 mg/kg/injection, schedule: Q04DX002 (ip), vehicle: Klucel (hydroxypropylcellulose) (HPC)
[13] = dose: 200.0 mg/kg/injection, schedule: Q04DX002 (ip), vehicle: Klucel (hydroxypropylcellulose) (HPC)
[14] = dose: 400.0 mg/kg/injection, schedule: Q04DX002 (ip), vehicle: Klucel (hydroxypropylcellulose) (HPC)

Measured: T/C

C[CH2][Pb]([CH2]C)([CH2]C)[O]C(=O)c1ccc(N)cc1
inactive: dose: 0.75 mg/kg/injection, schedule: Q01DX009 (ip), vehicle: Klucel (hydroxypropylcellulose) (HPC) 91 % of control | dose: 1.5 mg/kg/injection, schedule: Q01DX009 (ip), vehicle: Klucel (hydroxypropylcellulose) (HPC) 100 % of control | dose: 3.0 mg/kg/injection, schedule: Q01DX009 (ip), vehicle: Klucel (hydroxypropylcellulose) (HPC) 100 % of control | dose: 6.0 mg/kg/injection, schedule: Q01DX009 (ip), vehicle: Klucel (hydroxypropylcellulose) (HPC) 102 % of control | dose: 12.0 mg/kg/injection, schedule: Q01DX009 (ip), vehicle: Klucel (hydroxypropylcellulose) (HPC) 103 % of control | dose: 12.5 mg/kg/injection, schedule: Q04DX002 (ip), vehicle: Klucel (hydroxypropylcellulose) (HPC) 110 % of control | dose: 25.0 mg/kg/injection, schedule: Q04DX002 (ip), vehicle: Klucel (hydroxypropylcellulose) (HPC) 103 % of control

CSc1ccc(NC(=O)Nc2ccc(F)cc2)cc1
inactive: [1] 96 % of control | [2] 97 % of control

S=c1ncn(-c2ccccc2)[nH]1
inactive: dose: 50.0 mg/kg/injection, schedule: Q01DX009 (ip), vehicle: saline with Tween-80 103 % of control | [3] 95 % of control | [4] 95 % of control

OCC1OC(n2cnc3c2nnn2ccnc32)C(O)C1O (stereo not drawn)
inactive: dose: 12.5 mg/kg/injection, schedule: Q01DX009 (ip), vehicle: saline 98 % of control | dose: 12.5 mg/kg/injection, schedule: Q04DX002 (ip), vehicle: saline 108 % of control | dose: 25.0 mg/kg/injection, schedule: Q01DX009 (ip), vehicle: saline 101 % of control | dose: 25.0 mg/kg/injection, schedule: Q04DX002 (ip), vehicle: saline 108 % of control | dose: 50.0 mg/kg/injection, schedule: Q01DX009 (ip), vehicle: saline 98 % of control and 107 % of control and 123 % of control | dose: 50.0 mg/kg/injection, schedule: Q04DX002 (ip), vehicle: saline 104 % of control | dose: 75.0 mg/kg/injection, schedule: Q01DX009 (ip), vehicle: saline 100 % of control | dose: 100.0 mg/kg/injection, schedule: Q01DX005 (ip), vehicle: saline 114 % of control | [5] 115 % of control | dose: 115.0 mg/kg/injection, schedule: Q01DX009 (ip), vehicle: saline 104 % of control | dose: 170.0 mg/kg/injection, schedule: Q01DX009 (ip), vehicle: saline 112 % of control | dose: 200.0 mg/kg/injection, schedule: Q01DX005 (ip), vehicle: saline 107 % of control | [6] 120 % of control

O=[N+]([O-])c1cc([N+](=O)[O-])c(NN(c2ccc(Cl)cc2)c2ccc(Cl)cc2)c([N+](=O)[O-])c1
inactive: dose: 25.0 mg/kg/injection, schedule: Q01DX009 (ip), vehicle: Klucel (hydroxypropylcellulose) (HPC) 96 % of control | [7] 105 % of control | [1] 98 % of control | [8] 98 % of control | dose: 200.0 mg/kg/injection, schedule: Q04DX003 (ip), vehicle: Klucel (hydroxypropylcellulose) (HPC) 96 % of control | dose: 400.0 mg/kg/injection, schedule: Q04DX003 (ip), vehicle: Klucel (hydroxypropylcellulose) (HPC) 96 % of control

CC(/C=C\c1cccc([N+](=O)[O-])c1)=N\NC(=O)c1ccncc1
inactive: [9] 93 % of control | [10] 101 % of control | [11] 96 % of control

O=C(O)c1c2c(nc3ccccc13)CCC(C(=O)O)C2 (stereo not drawn)
inactive: [12] 95 % of control | [13] 95 % of control | [14] 103 % of control

CC(=O)Oc1ccc2nccc(C)c2c1
inactive: dose: 100.0 mg/kg/injection, schedule: Q01DX001 (ip), vehicle: saline 100 % of control | dose: 200.0 mg/kg/injection, schedule: Q01DX001 (ip), vehicle: saline 100 % of control | dose: 400.0 mg/kg/injection, schedule: Q01DX001 (ip), vehicle: saline 100 % of control

c1cc[c]([Sn]([c]2ccccc2)([CH]2CCCCC2)[CH]2CCCCC2)cc1
inactive: dose: 75.0 mg/kg/injection, schedule: Q04DX002 (ip), vehicle: gum acacia 96 % of control | dose: 150.0 mg/kg/injection, schedule: Q04DX002 (ip), vehicle: gum acacia 101 % of control | dose: 300.0 mg/kg/injection, schedule: Q04DX002 (ip), vehicle: gum acacia 96 % of control

CC1CN=C(c2ccc(NC(=O)c3ccc(C(=O)Nc4ccc(C5=NCC(C)CN5)cc4)cc3)cc2)NC1 (stereo not drawn)
inactive: dose: 0.12 mg/kg/injection, schedule: Q01DX015 (ip), vehicle: water 100 % of control | dose: 0.25 mg/kg/injection, schedule: Q01DX015 (ip), vehicle: water 102 % of control | dose: 0.5 mg/kg/injection, schedule: Q01DX015 (ip), vehicle: water 104 % of control | dose: 1.0 mg/kg/injection, schedule: Q01DX015 (ip), vehicle: water 104 % of control | dose: 2.0 mg/kg/injection, schedule: Q01DX015 (ip), vehicle: water 122 % of control | dose: 4.0 mg/kg/injection, schedule: Q01DX015 (ip), vehicle: water 114 % of control

CCCC1(CN2c3ccccc3Sc3ccccc32)CCN(CC)C1 (stereo not drawn)
inactive: dose: 9.37 mg/kg/injection, schedule: Q01DX009 (ip), vehicle: saline 101 % of control | dose: 12.5 mg/kg/injection, schedule: Q01DX001 (ip), vehicle: saline 97 % of control and 100 % of control | dose: 12.5 mg/kg/injection, schedule: Q04DX003 (ip), vehicle: saline 103 % of control | dose: 18.75 mg/kg/injection, schedule: Q01DX009 (ip), vehicle: saline 95 % of control | dose: 25.0 mg/kg/injection, schedule: Q01DX001 (ip), vehicle: saline 95 % of control | dose: 25.0 mg/kg/injection, schedule: Q04DX003 (ip), vehicle: saline 103 % of control | dose: 37.5 mg/kg/injection, schedule: Q01DX009 (ip), vehicle: saline 92 % of control | dose: 50.0 mg/kg/injection, schedule: Q01DX001 (ip), vehicle: saline 95 % of control and 87 % of control | dose: 50.0 mg/kg/injection, schedule: Q04DX003 (ip), vehicle: saline 97 % of control | dose: 75.0 mg/kg/injection, schedule: Q04DX003 (ip), vehicle: saline 103 % of control

CC(=O)O[C@@H]1CC[C@]2(C)C(=CC[C@@H]3C4CC5O[C@]6(CCC(C)CN6)C(C)C5[C@]4(C)CCC32)C1 (stereo partly drawn)
inactive: [12] 93 % of control | [13] 89 % of control | [14] 93 % of control

COC(=O)c1cc([N+](=O)[O-])c(Br)s1
inactive: [8] 93 % of control

O=C1CSCC(=O)O1
inactive: [7] 97 % of control | [1] 89 % of control | [2] 86 % of control

CCOC1OCN(C(C)(C)C)CC1(C)C (stereo not drawn)
inactive: [5] 118 % of control | [6] 116 % of control

[Se]c1ncnc2nc[nH]c12
inactive: dose: 25.0 mg/kg/injection, schedule: Q01DX001 (ip), vehicle: carboxymethylcellulose (CMC) 103 % of control | dose: 50.0 mg/kg/injection, schedule: Q01DX001 (ip), vehicle: carboxymethylcellulose (CMC) 93 % of control | dose: 100.0 mg/kg/injection, schedule: Q01DX001 (ip), vehicle: carboxymethylcellulose (CMC) 121 % of control

Cc1ccc(C)c(NC(=O)N(C2CCCCC2)C2CCCCC2)c1
inactive: [3] 112 % of control | [9] 100 % of control | [4] 101 % of control | [10] 94 % of control | dose: 400.0 mg/kg/injection, schedule: Q01DX009 (ip), vehicle: saline with Tween-80 107 % of control | [11] 97 % of control

CN(C)CCNc1ccccn1
inactive: dose: 75.0 mg/kg/injection, schedule: Q01DX001 (ip), vehicle: saline 98 % of control | dose: 150.0 mg/kg/injection, schedule: Q01DX001 (ip), vehicle: saline 104 % of control

COC(=O)c1ccc(C(=O)OC)nc1
inactive: dose: 50.0 mg/kg/injection, schedule: Q04DX002 (ip), vehicle: Klucel (hydroxypropylcellulose) (HPC) 106 % of control | [12] 95 % of control | [13] 103 % of control

CCN1CCC2CN(C(=S)Nc3ccccc3)CCN2C1=O (stereo not drawn)
inactive: [9] 97 % of control | [10] 94 % of control | [11] 91 % of control

CC(C)(C)OC(=O)C1OC1(C)c1ccccc1 (stereo not drawn)
inactive: dose: 75.0 mg/kg/injection, schedule: Q01DX001 (ip), vehicle: other 106 % of control | dose: 150.0 mg/kg/injection, schedule: Q01DX001 (ip), vehicle: other 107 % of control | dose: 300.0 mg/kg/injection, schedule: Q01DX001 (ip), vehicle: other 98 % of control
